# Test results as given in patent US7910622B2, “Modulation of bacterial quorum sensing with synthetic ligands” (Wisconsin Alumni Research Foundation, priority 2007, dated 2011).
# pEC50, pIC50: −log10 of the molar value. “And” between values parts separate entries of the source, which are not always exact repeats. Equal entries are not always repeated.
# Columns and labels:
# TraR = molecular target: T1, TraR (Agrobacterium tumefaciens, UniProt P33905); assay: cell-based; settings: for A. tumefaciens-TraR Activation [%]: 10 μM ligand; for A. tumefaciens-TraR Inhibition [%]: 10 μM synthetic ligand against 100 nM OOHL
# T1 construct: These strains lack their AHL synthase (I) genes, but retain their native R genes; endogenous in cells; host or cells: A. tumefaciens WCF47 (Δ-traI) with PtraI-lacZ plasmid pCF372
# T1 sequence (P33905 whole entry): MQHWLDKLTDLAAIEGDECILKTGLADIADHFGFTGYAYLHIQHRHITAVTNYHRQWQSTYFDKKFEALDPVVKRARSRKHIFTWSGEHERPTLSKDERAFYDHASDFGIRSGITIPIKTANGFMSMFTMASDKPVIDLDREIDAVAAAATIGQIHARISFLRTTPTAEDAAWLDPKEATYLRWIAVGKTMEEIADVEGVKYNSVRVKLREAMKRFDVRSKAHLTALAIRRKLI
# LasR [1] = molecular target: T2, LasR (Pseudomonas aeruginosa, UniProt P25084); assay: cell-based; settings: for E. coli-LasR Activation [%]: 5 μM ligand
# T2 construct: expressed in transfected cells; host or cells: E. coli DH5α (pJN105L pSC11), arabinose-induced
# T2 sequence (P25084 whole entry): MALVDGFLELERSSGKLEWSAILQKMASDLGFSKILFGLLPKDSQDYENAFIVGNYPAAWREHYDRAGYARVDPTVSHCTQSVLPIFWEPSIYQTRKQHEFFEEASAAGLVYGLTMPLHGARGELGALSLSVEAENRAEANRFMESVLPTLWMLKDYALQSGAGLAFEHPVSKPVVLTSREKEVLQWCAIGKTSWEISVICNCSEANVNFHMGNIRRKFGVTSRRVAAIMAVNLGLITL
# Procedure, shortened: (§1)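 E. coli DH5α carrying pJN105L/pSC11 grown to OD600 0.3, LasR expression induced with arabinose (4 mg/mL), then incubated with AHLs at 37 °C to OD600 0.45. LasR activity read by β-galactosidase reporter assay; IC50/EC50 from sigmoidal dose-response fits.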
# LuxR [2] = molecular target: T3, LuxR (Aliivibrio fischeri, UniProt P35327); assay: cell-based; format: cell-based, Vibrio fischeri; settings: for V. fischeri-LuxR Inhibition [%]: 5 μM synthetic ligand against 5 μM OHHL
# T3 construct: a Δ-luxI derivative of V. fischeri ES114, in which the native lux operon behaves as the bioluminescent reporter; endogenous in cells; host or cells: V. fischeri ES114 (Δ-luxI)
# T3 sequence (P35327 whole entry): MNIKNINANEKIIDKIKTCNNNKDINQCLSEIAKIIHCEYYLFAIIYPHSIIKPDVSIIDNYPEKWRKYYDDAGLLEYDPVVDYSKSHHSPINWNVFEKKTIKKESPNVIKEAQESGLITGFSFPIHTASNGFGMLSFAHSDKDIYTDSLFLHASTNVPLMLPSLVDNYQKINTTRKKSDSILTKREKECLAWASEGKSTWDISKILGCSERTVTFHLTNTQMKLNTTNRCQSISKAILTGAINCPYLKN
# Procedure, shortened: (§2)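 Whole-cell luminescence reporter in V. fischeri ES114 (WT, Δ-luxI or Δ-luxR) or E. coli, overnight cultures diluted 1:10 and grown with compound at RT (E. coli 30° C) to OD600 0.35-0.4 (4-6 h). Luminescence normalized to cell density, triplicates; EC50/IC50 from sigmoidal fit.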
# LuxR [3] = molecular target: T3, LuxR; assay: cell-based; design: species or system Vibrio fischeri; settings: for pEC50: LuxR EC50, V. fischeri ES114 (Δ-luxI); for V. fischeri-LuxR Activation [%]: 200 μM ligand; for V. fischeri-LuxR Activation [%] / activation at 200 µM: V. fischeri ES114 (Δ-luxI), normalized to OHHL; for activation at 200 µM: read-out: V. fischeri-LuxR Activation [%], 200 μM ligand
# Procedure, shortened: as §2
# LasR [4] = molecular target: T2, LasR; assay: cell-based; format: cell-based; settings: for E. coli-LasR Inhibition [%]: 5 μM synthetic ligand against 7.5 nM OdDHL
# Procedure, shortened: as §1
# [5] = molecular target: QscR:DNA binding (PA1897 promoter) (Pseudomonas aeruginosa, UniProt G3XD77); settings: EMSA
# QscR:DNA binding (PA1897 promoter), sequence (G3XD77 entry or part of it): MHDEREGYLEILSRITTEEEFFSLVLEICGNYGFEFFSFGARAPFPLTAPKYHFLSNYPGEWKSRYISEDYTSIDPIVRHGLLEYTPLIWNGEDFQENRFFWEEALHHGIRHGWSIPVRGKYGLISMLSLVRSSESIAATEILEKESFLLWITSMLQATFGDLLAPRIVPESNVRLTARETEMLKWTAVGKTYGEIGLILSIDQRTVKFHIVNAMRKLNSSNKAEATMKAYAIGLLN
# Text: We sought to obtain further insights into the mechanism of QscR modulation by non-native AHLs. […] We therefore performed electromobility shift assays (EMSA) on purified QscR and radiolabeled PA1897 promoter in the presence of selected QscR antagonists and 1.
# elastase B production = assay: microbe, parasite or virus in culture; format: cell-based, Pseudomonas aeruginosa; settings: P. aeruginosa PAO1; 200 μM
# Method: Elastase B production assay in P. aeruginosa. Elastase B activity in P. aeruginosa was measured according to a previously reported method, with the following modifications. P. aeruginosa PAO1 was grown overnight in LB media at 37° C., after which it was diluted to an OD600=0.1. Portions (2 mL) of this culture was added to test tubes containing synthetic compounds to give final concentrations of 20 μM or 200 μM and incubated for 12-14 h at 37° C. with 200 rpm shaking. The OD600 was measured for each tube, after which the contents of the tubes were filtered through a […] Whatman filter to remove all cellular matter. A 100 μL-aliquot of the supernatant was added to 900 μL of an Elastin Congo Red Solution (5 mg of Elastin Congo red substrate per 1 mL of 100 mM Tris-HCl, 1 mM CaCl2 (pH 7.2)) and incubated for 12 h at 37° C. with 250 rpm shaking. The contents of these tubes were then filtered in order to remove unreacted Elastin Congo red substrate. Elastase B activity was then calculated (normalized) by dividing the absorbance of the cleaved Congo red (OD492) by the cell density (OD600 of the cells before first filtration).
# Elastase B production assay in P. aeruginosa. Elastase B activity in P. aeruginosa was measured according to a previously reported method, with the following modifications. P. aeruginosa PAO1 was grown overnight at 37° C. and then diluted 1:10 with fresh LB medium. Portions (2 mL) of this culture were added to test tubes containing synthetic compounds to give final compound concentrations of 20 μM or 200 μM. The tubes were incubated for 12-14 h at 37° C. The OD600 was measured for each tube, after which the contents of the tubes were filtered through a 0.2 μm Whatman filter to remove all cellular matter. A 100 μL aliquot of the supernatant was added to 900 μL of an elastin-Congo red solution (5 mg of elastin-Congo red substrate per 1 mL of buffer (100 mM Tris-HCl, 1 mM CaCl2, pH 7.2)) and incubated for 12 h at 37° C. with 250 rpm shaking. The contents of these tubes were then filtered in order to remove unreacted elastin-Congo red substrate, and the supernatant containing cleaved Congo red was isolated. A 200 μL aliquot of the supernatant was added to a 96-well multititer plate, and the OD492 was measured. Elastase B activity was calculated by dividing the absorbance of the cleaved Congo red solution (OD492) by the cell density (OD600 of the cells before first filtration).
# LuxR [6] = molecular target: T4, LuxR (Aliivibrio fischeri, UniProt P12746); assay: LuxR luminescence antagonism and agonism assays in E. coli JM109 (pSB401); format: cell-based, Vibrio fischeri; settings: EC50 of autoinducer in E. coli JM109 (pSB401)
# T4 construct: expressed in transfected cells; host or cells: E. coli JM109 (pSB401)
# T4 sequence (P12746 whole entry): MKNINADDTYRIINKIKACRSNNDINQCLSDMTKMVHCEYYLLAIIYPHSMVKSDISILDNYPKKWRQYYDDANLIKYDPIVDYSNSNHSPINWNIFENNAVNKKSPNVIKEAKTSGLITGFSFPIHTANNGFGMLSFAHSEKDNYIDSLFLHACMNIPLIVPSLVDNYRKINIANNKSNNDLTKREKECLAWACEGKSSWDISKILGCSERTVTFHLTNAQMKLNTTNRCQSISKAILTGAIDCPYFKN
# Method: Competitive inhibition assays were performed in the presence of both OHHL and PHLs 11 (at a 1:1 ratio), while agonism assays were performed with PHLs alone.
# Luminescence assays. For agonism assays, an appropriate amount of AHL stock solution was added into a 96-well plate. […] A 200-μL portion of the diluted culture was added to each well of the plate. […] Luminescence was measured using a multilabel plate reader and normalized to cell density. […] All assays were performed in triplicate. Graphpad Prism software was used to calculate IC50 and EC50 values.
# E. coli assay procedures. […] An overnight culture of E. coli JM109 (pSB401) was diluted 1:10 with LB medium (containing 10 μg/mL tetracycline). A 200-μL portion of the diluted culture was added to each well of the plate. Plates were grown at 30° C. with shaking (200 rpm) until the OD600=0.35-0.4 (6-8 h). Luminescence then was measured and normalized to cell density per well. […] All assays were performed in triplicate.
# [7] = test system: V. fischeri ES114 (Δ-luxR); assay: Luminescence assay in Δ-luxR derivative of V. fischeri ES114; format: cell-based, Vibrio fischeri
# Method: (§3) Vibrio fischeri assay procedures. For primary agonism assays, an appropriate amount of concentrated control or PHL (11) stock solution, to give a final concentration of 200 μM, was added to wells in a 96-well multititer plate. An overnight culture of V. fischeri ES114 (WT, Δ-luxI or Δ-luxR) was diluted 1:10 with LBS medium. A-200 μL portion of the diluted culture was added to each well of the plate. Plates were grown at RT with shaking (200 rpm) until the OD600=0.35-0.4 (4-6 h). Luminescence then was measured and normalized to cell density per well. […] Similar methods were used for dose response assays, except the concentrations of controls and PHLs 11 used were between 0.02 and 2×10^5 nM. All assays were performed in triplicate. IC50 and EC50 values were calculated using GraphPad Prism software using a sigmoidal curve fit.
# [8] = test system: wild-type V. fischeri ES114; assay: Luminescence dose response in wild-type V. fischeri ES114; format: cell-based, Vibrio fischeri; settings: relative to OHHL
# Method: as §3
# Euprymna scolopes squid = assay: Preliminary experiments in squid / invertebrate model systems (tolerance, activity in vivo)
# [9] = A. tumefaciens WCF47 (pCF372), normalized to OOHL
# [10] = E. coli DH5α (pJN105L pSC11), normalized to OdDHL
# [11] = V. fischeri ES114 (Δ-luxI), normalized to OHHL
compound,measurement,setting,value
CCOc1ccc(CC(=O)N[C@H]2CCOC2=O)cc1 [C25],Activation (%),"TraR; A. tumefaciens-TraR, Library C primary agonism screen",0%
same,Inhibition (%),"TraR; A. tumefaciens-TraR, Library C primary antagonism screen",35%
same,Activation (%),"LasR [1]; E. coli-LasR, Library C primary agonism screen",0%
same,Inhibition (%),"LuxR [2]; V. fischeri-LuxR, Library C primary antagonism screen",55%
same,Activation (%),"LuxR [3]; V. fischeri-LuxR, Library C primary agonism screen",2%
same,Inhibition (%),"LasR [4]; E. coli-LasR, Library C primary antagonism screen",15%
same,inhibition of OdDHL-dependent QscR:DNA binding,[5],capable of inhibiting OdDHL (1)-dependent QscR:DNA binding
"O=C(CCCc1c[nH]c2ccccc12)N[C@H]1CCOC1=O [compound 9, indole AHL, reference compound]",A. tumefaciens-TraR Activation [%],TraR; [9],0%
same,elastase B production inhibition,elastase B production,66%
"CCCC(=O)CC(=O)N[C@H]1CCOC1=O [compound 3, N-(3-oxo-hexanoyl)-L-homoserine lactone, reference compound]",pEC50,LuxR [6],~8.00 and 7.70
same,pEC50,LuxR [3],5.52 and ~5.30
O=C(CCC(=O)OC(C(=O)c1ccccc1)c1ccccc1)N[C@H]1CCOC1=O (stereo partly drawn) [D19],A. tumefaciens-TraR Activation [%],TraR; [9],0%
same,A. tumefaciens-TraR Inhibition [%],TraR; [9],11%
same,E. coli-LasR Activation [%],LasR [1]; [10],7%
same,V. fischeri-LuxR Inhibition [%],LuxR [2]; [11],30%
same,V. fischeri-LuxR Activation [%],LuxR [3],1%
same,E. coli-LasR Inhibition [%],LasR [4]; [10],17%
4-methyl PHL [B24],A. tumefaciens-TraR Activation [%],TraR; [9],3%
same,A. tumefaciens-TraR Inhibition [%],TraR; [9],21%
same,E. coli-LasR Activation [%],LasR [1]; [10],0%
same,V. fischeri-LuxR Inhibition [%],LuxR [2]; [11],58%
same,V. fischeri-LuxR Activation [%],LuxR [3],1%
same,E. coli-LasR Inhibition [%],LasR [4]; [10],11%
CCOc1ccc(CC(=O)N[C@H]2CCOC2=O)cc1 [B29],A. tumefaciens-TraR Activation [%],TraR; [9],0%
same,A. tumefaciens-TraR Inhibition [%],TraR; [9],35%
same,E. coli-LasR Activation [%],LasR [1]; [10],0%
same,V. fischeri-LuxR Inhibition [%],LuxR [2]; [11],55%
same,V. fischeri-LuxR Activation [%],LuxR [3],2%
same,E. coli-LasR Inhibition [%],LasR [4]; [10],15%
"O=C(Cc1ccc([N+](=O)[O-])cc1)NC1CCOC1=O (stereo not drawn) [B16, 4-nitro PHL]",pIC50,TraR,5.65
same,activation at 10 µM,TraR; read-out: A. tumefaciens-TraR Activation [%],1%
same,inhibition at 10 µM,"TraR; read-out: A. tumefaciens-TraR Inhibition [%], 10 μM synthetic ligand against 100 nM OOHL, A. tumefaciens WCF47 (pCF372), normalized to OOHL",~90%
same,activation at 5 µM,"LasR [1]; read-out: E. coli-LasR Activation [%], 5 μM ligand, E. coli DH5α (pJN105L pSC11), normalized to OdDHL",0%
same,inhibition at 5 µM,"LuxR [2]; read-out: V. fischeri-LuxR Inhibition [%], 5 μM synthetic ligand against 5 μM OHHL, V. fischeri ES114 (Δ-luxI), normalized to OHHL",47%
same,activation at 200 µM,LuxR [3],~25%
same,inhibition at 5 µM,"LasR [4]; read-out: E. coli-LasR Inhibition [%], 5 μM synthetic ligand against 7.5 nM OdDHL, E. coli DH5α (pJN105L pSC11), normalized to OdDHL",27%
O=C(Cc1ccccc1[N+](=O)[O-])N[C@H]1CCOC1=O [B18],A. tumefaciens-TraR Activation [%],TraR; [9],0%
same,A. tumefaciens-TraR Inhibition [%],TraR; [9],1%
same,E. coli-LasR Activation [%],LasR [1]; [10],0%
same,V. fischeri-LuxR Inhibition [%],LuxR [2]; [11],23%
same,V. fischeri-LuxR Activation [%],LuxR [3],4%
same,E. coli-LasR Inhibition [%],LasR [4]; [10],17%
O=C(CCCc1c[nH]c2ccccc12)N[C@@H]1CCOC1=O [A29],A. tumefaciens-TraR Activation [%],TraR; [9],0%
same,A. tumefaciens-TraR Inhibition [%],TraR; [9],9%
same,E. coli-LasR Activation [%],LasR [1]; [10],0%
same,V. fischeri-LuxR Inhibition [%],LuxR [2]; [11],29%
same,V. fischeri-LuxR Activation [%],LuxR [3],2%
same,E. coli-LasR Inhibition [%],LasR [4]; [10],13%
O=C(/C=C/c1ccccc1)N[C@H]1CCOC1=O [A19],A. tumefaciens-TraR Activation [%],TraR; [9],3%
same,A. tumefaciens-TraR Inhibition [%],TraR; [9],7%
same,E. coli-LasR Activation [%],LasR [1]; [10],2%
same,V. fischeri-LuxR Inhibition [%],LuxR [2]; [11],48%
same,V. fischeri-LuxR Activation [%],LuxR [3],3%
same,E. coli-LasR Inhibition [%],LasR [4]; [10],22%
"O=C(Cc1cccc([N+](=O)[O-])c1)N[C@H]1CCOC1=O [11n, N-(3-nitro-phenylacetanoyl)-L-homoserine lactone]",luminescence / activity in Δ-luxR derivative of V. fischeri ES114,[7],Neither 11n nor OHHL induced any detectable luminescence
same,activity in wild-type V. fischeri,[8],similarly heightened activity
same,activity / modulation of quorum sensing in vivo,Euprymna scolopes squid,active in vivo
same,tolerance in squid / invertebrate model systems,Euprymna scolopes squid,well tolerated
same,V. fischeri-LuxR Inhibition [%],LuxR [2]; [11],no inhibitory activity
same,EC50 lower / activity higher relative to OHHL,LuxR [3]; LuxR,10 fold
same,pEC50,LuxR [3],6.52
same,luminescence induced higher than native ligand OHHL,"LuxR [3]; primary agonism assay, 200 μM, same concentration as OHHL",29%
same,activation at 200 µM,LuxR [3],≥ 60%
